In US7282522B2, “Hydroxamic acid derivatives and the method for preparing thereof” (Amorepacific Corporation, priority 2003, dated 2007):

What was measured:
RARα = target: T1, RARα (Homo sapiens, UniProt P10276); test: RARE-luciferase reporter assay in transfected CV-1 cells (affinity to retinoic acid receptor), RARα; assay type: cell-based; conditions: treated 24 hours at final concentration 10^−4M, control group 1000
T1 construct: expressed in transfected cells; host or cells: CV-1 cells (ATCC)
T1 sequence (P10276 1-462): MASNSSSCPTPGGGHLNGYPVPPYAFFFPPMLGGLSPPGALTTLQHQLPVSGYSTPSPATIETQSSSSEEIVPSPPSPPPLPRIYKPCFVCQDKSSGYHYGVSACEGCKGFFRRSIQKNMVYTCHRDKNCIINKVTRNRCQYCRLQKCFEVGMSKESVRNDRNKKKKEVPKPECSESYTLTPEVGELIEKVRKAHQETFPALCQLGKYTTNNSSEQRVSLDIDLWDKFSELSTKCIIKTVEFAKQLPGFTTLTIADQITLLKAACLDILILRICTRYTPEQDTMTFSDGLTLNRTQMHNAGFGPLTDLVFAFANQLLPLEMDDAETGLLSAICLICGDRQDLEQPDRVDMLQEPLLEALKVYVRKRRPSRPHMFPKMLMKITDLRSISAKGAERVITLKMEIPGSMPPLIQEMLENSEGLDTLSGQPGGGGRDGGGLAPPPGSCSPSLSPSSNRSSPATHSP
In short: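 CV-1 cells co-transfected with pECE-RARα or pECE-RARγ, RARE-tk-Luc reporter and β-galactosidase vector. Starting 24 h post-transfection, cells were treated for 24 h with compounds at a final 10^−4M; luciferase reporter read-out.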

RARγ = target: T2, RARγ (Homo sapiens, UniProt P13631); test: RARE-luciferase reporter assay in transfected CV-1 cells (affinity to retinoic acid receptor), RARγ; assay type: cell-based; conditions: treated 24 hours at final concentration 10^−4M, control group 5000
T2 construct: expressed in transfected cells; host or cells: CV-1 cells (ATCC)
T2 sequence (P13631 1-454): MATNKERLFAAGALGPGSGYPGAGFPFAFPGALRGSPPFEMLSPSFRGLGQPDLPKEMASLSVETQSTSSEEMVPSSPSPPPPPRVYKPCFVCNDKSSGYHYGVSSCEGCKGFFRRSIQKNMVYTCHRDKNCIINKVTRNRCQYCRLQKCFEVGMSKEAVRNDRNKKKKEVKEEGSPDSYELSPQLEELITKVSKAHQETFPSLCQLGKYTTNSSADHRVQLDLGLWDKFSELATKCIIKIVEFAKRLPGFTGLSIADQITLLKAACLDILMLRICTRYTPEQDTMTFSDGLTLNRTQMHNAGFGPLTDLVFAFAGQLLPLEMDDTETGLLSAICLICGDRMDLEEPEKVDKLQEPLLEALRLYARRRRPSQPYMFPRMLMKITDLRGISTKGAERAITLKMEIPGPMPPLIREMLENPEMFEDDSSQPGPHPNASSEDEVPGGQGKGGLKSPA
In short: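 CV-1 cells in DMEM with 2.5% FBS, 5,000 per well, transfected 24 h after seeding with 10 ng pECE-RARα, pECE-RARγ, 100 ng RARE-tk-Luc reporter and 100 ng β-galactosidase vector. Read-out is RARE-driven luciferase.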

procollagen type I = test: Effect on collagen biosynthesis (procollagen type I ELISA) in human fibroblasts; assay type: cell-based; conditions: 10^−4M, 24 hours, serum-free medium, relative to control group = 100
Procedure: Human fibroblasts were seeded into 24-well plate at 1×10^5 cells per well and then cultured to 90% of growth.
For each supernatant, procollagen production was measured with procollagen type I ELISA kit.

collagenase = test: Inhibition of collagenase expression in human fibroblasts (ELISA kit); assay type: cell-based; conditions: 10^−4M, 24 hours, serum-free medium, relative to control group = 100
In short: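 Serum-starved human fibroblasts were treated for 24 h with 10^−4M test material in serum-free DMEM. Collagenase in the culture fluid was measured by sandwich ELISA read at 405 nm. Values are expressed as % of the untreated control (=100).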

elastase = test: Inhibition of elastase expression in human fibroblasts (ELISA kit); assay type: cell-based; conditions: 10^−4M, 24 hours, serum-free medium, relative to control group = 100
In short: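 Elastase in fibroblast culture fluid quantified by sandwich ELISA: 3 h capture, then chromophore-conjugated secondary antibody, then colour development, stopped with 1M sulfuric acid. Absorbance read at 405 nm. Expression given as % of the untreated control absorbance, with control set to 100.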

white guinea pigs = test: Phototoxicity test (UVA irradiation); conditions: for Evaluation (phototoxicity): 1%(w/v) solution, UVA 15 J/cm^2; for Phototoxic index: 50 μl of 1%(w/v) solution, UVA 320~380 nm 15 J/cm^2, observed 24, 48 and 72 hours
rabbits = test: Primary skin irritation test on animals (Draize P.I.I.); conditions: depilated back; for P.I.I. (Primary Irritation Index): 0.5 ml of 1% solution in 1,3-butylene glycol:ethanol 7:3, observed 24 or 72 hours later; for Evaluation (skin irritation): 1% solution, according to Draize's P.I.I.
Procedure: Test was performed using fifty-six (56) of healthy male rabbits whose backs were depilated. […] 0.5ml of the test sample solution was applied to the right site of 2.5 cm×2.5 cm region on each of the depilated back. Left site with no sample treated was compared as a control. 24 hours or 72 hours later, skin abnormality such as erythema, crust and edema was observed.
Based on the score of skin response, skin irritation was evaluated according to Draize's P.I.I.(Primary Irritation Index) and compared with retinoic acid.

SMILES | Luciferase activity RARα (RARα) | Luciferase activity RARγ (RARγ) | Collagen biosynthesis (%) (procollagen type I) | Collagenase expression (%) (collagenase) | Elastase expression (%) (elastase) | Evaluation (phototoxicity) (white guinea pigs) | Phototoxic index (white guinea pigs) | P.I.I. (Primary Irritation Index) (rabbits) | Evaluation (skin irritation) (rabbits)
CC(C)c1ccc(C(=O)Nc2ccc(CC(=O)NO)cc2)cc1 [Example 28, N-[4-(N-hydroxycarbamoylmethyl)phenyl][4-isopropylphenyl]carboxyamide] | 12900 | 10700 | 121 | 67 | 79 | No phototoxicity (lower value than 0.5, criterion value to be estimated as no phototoxicity) | 0 | 0.765 | No irritation
CCCCc1ccc(C(=O)Nc2ccc(CC(=O)NO)cc2)cc1 [Example 29, N-[4-(N-hydroxycarbamoylmethyl)phenyl][4-butylphenyl]carboxyamide] | 18900 | 10600 | 132 | 77 | 70 | No phototoxicity (lower value than 0.5, criterion value to be estimated as no phototoxicity) | 0 | 0.234 | No irritation
CC(C)(C)c1ccc(C(=O)Nc2ccc(CC(=O)NO)cc2)cc1 [Example 30, N-[4-(N-hydroxycarbamoylmethyl)phenyl][4-tert-butylphenyl]carboxyamide] | 23500 | 12000 | 121 | 83 | 69 | No phototoxicity (lower value than 0.5, criterion value to be estimated as no phototoxicity) | 0 | 0.456 | No irritation
Cc1ccc(C(=O)Nc2ccc(CC(=O)NO)cc2)cc1C [Example 31, N-[4-(N-hydroxycarbamoylmethyl)phenyl][3,4-dimethylphenyl]carboxyamide] | 23100 | 10700 | 109 | 81 | 63 | No phototoxicity (lower value than 0.5, criterion value to be estimated as no phototoxicity) | 0 | 0.567 | No irritation
O=C(Cc1ccc(NC(=O)C23CC4CC(CC(C4)C2)C3)cc1)NO [Example 32, N-[4-(N-hydroxycarbamoylmethyl)phenyl]adamantyl carboxyamide] | 18000 | 10000 | 125 | 79 | 74 | No phototoxicity (lower value than 0.5, criterion value to be estimated as no phototoxicity) | 0 | 0.375 | No irritation
CN(O)C(=O)Cc1ccc(NC(=O)C23CC4CC(CC(C4)C2)C3)cc1 [Example 33, 2-[4-(adamantlycarbonylamino)phenyl]-N-hydroxy-N-methylacetamide] | 13400 | 11000 | 112 | 70 | 82 | No phototoxicity (lower value than 0.5, criterion value to be estimated as no phototoxicity) | 0 | 0.765 | No irritation
Cc1ccc(NC(=O)c2ccc(C(=O)NO)cc2)cc1 [Example 35, [4-(N-hydroxycarbamoyl)phenyl]-N-[4-methylphenyl]carboxyamide] | 14500 | 11300 | 111 | 90 | 71 | No phototoxicity (lower value than 0.5, criterion value to be estimated as no phototoxicity) | 0 | 0.245 | No irritation
Cc1cccc(NC(=O)c2ccc(C(=O)NO)cc2)c1 [Example 36, [4-(N-hydroxycarbamoyl)phenyl]-N-[3-methylphenyl]carboxyamide] | 16700 | 11200 | 121 | 68 | 79 | No phototoxicity (lower value than 0.5, criterion value to be estimated as no phototoxicity) | 0 | 0.456 | No irritation
CCc1ccc(NC(=O)c2ccc(C(=O)NO)cc2)cc1 [Example 37, [4-(N-hydroxycarbamoyl)phenyl]-N-[4-ethylphenyl]carboxyamide] | 19000 | 10300 | 121 | 70 | 80 | No phototoxicity (lower value than 0.5, criterion value to be estimated as no phototoxicity) | 0 | 0.456 | No irritation
CCCc1ccc(NC(=O)c2ccc(C(=O)NO)cc2)cc1 [Example 38, [4-(N-hydroxycarbamoyl)phenyl]-N-[4-propylphenyl]carboxyamide] | 17500 | 10400 | 109 | 87 | 69 | No phototoxicity (lower value than 0.5, criterion value to be estimated as no phototoxicity) | 0 | 0.567 | No irritation
CC(C)c1ccc(NC(=O)c2ccc(C(=O)NO)cc2)cc1 [Example 39, [4-(N-hydroxycarbamoyl)phenyl]-N-[4-isopropylphenyl]carboxyamide] | 18700 | 10100 | 105 | 78 | 87 | No phototoxicity (lower value than 0.5, criterion value to be estimated as no phototoxicity) | 0 | 0.145 | No irritation
CCCCc1ccc(NC(=O)c2ccc(C(=O)NO)cc2)cc1 [Example 40, [4-(N-hydroxycarbamoyl)phenyl]-N-[4-butylphenyl]carboxyamide] | 14300 | 11200 | 108 | 77 | 90 | No phototoxicity (lower value than 0.5, criterion value to be estimated as no phototoxicity) | 0 | 0.546 | No irritation
